Experimental data from ChEMBL document CHEMBL2429725, “New chemotypes for wALADin1-like inhibitors of delta-aminolevulinic acid dehydratase from Wolbachia endobacteria” (Bioorg Med Chem Lett, 2013).
Active and inactive are the calls of the source. No cut-off for these calls is given here.

Tests used:
[1] = target: T1, Delta-aminolevulinic acid dehydratase (Homo sapiens) (UniProt P13716); test: (§1) Inhibition of human ALADH after 20 mins
T1 sequence (whole entry): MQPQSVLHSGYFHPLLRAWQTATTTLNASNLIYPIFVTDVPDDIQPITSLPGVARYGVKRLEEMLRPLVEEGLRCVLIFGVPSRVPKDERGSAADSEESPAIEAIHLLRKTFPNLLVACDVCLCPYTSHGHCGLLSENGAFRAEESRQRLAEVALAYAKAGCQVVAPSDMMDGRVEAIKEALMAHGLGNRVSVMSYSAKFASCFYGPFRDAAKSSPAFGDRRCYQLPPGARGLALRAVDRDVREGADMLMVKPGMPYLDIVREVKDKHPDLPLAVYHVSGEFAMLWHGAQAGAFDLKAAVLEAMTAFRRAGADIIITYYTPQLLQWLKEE

[2] = target: T2, Delta-aminolevulinic acid dehydratase (Homo sapiens, UniProt P13716); test: as §1
T2 sequence (P13716 whole entry): T1 sequence (whole entry)

[3] = (§2) Inhibition of recombinant Wolbachia endobacteria ALADH using 5-ALA as substrate after 20 mins
Wolbachia [4] = test: Non-competitive inhibition of recombinant Wolbachia endobacteria ALADH using 5-ALA as substrate in presence of Mg2+
Wolbachia [5] = test: Non-competitive inhibition of recombinant Wolbachia endobacteria ALADH using 5-ALA as substrate
Wolbachia [6] = test: Binding affinity to recombinant Wolbachia endobacteria assessed as change in melting temperature at 100 uM by thermal shift assay
Wolbachia [7] = test: Binding affinity to recombinant Wolbachia endobacteria assessed as change in melting temperature at 25 uM by thermal shift assay
Wolbachia [8] = test: Binding affinity to recombinant Wolbachia endobacteria assessed as change in melting temperature at 12.5 uM by thermal shift assay
Wolbachia [9] = test: Binding affinity to recombinant Wolbachia endobacteria assessed as change in melting temperature at 6.25 uM by thermal shift assay
Wolbachia [10] = test: Binding affinity to recombinant Wolbachia endobacteria assessed as change in melting temperature at 1.6 uM by thermal shift assay
Wolbachia [11] = test: Binding affinity to recombinant Wolbachia endobacteria assessed as change in melting temperature at 3.1 uM by thermal shift assay
Wolbachia [12] = test: Inhibition of recombinant Wolbachia endobacteria ALADH using 5-ALA as substrate after 20 mins relative to control
Wolbachia [13] = test: as §2

| SMILES | inhibition [1] | IC50 [3] | inhibition (Wolbachia [13]) | also measured |
| --- | --- | --- | --- | --- |
| O=C(O)c1ccc2c(c1)n(Cc1ncccn1)c(=O)n2Cc1ccc(F)cc1 | > 25% |  |  | IC50 ([2]; read-out: IC50): 119 µM; IC50 ([3]; read-out: IC50): > 1000 µM |
| O=C(O)c1c2c(nc3ccccc13)CCN(C(=O)c1cccc(C(F)(F)F)c1)C2 |  |  |  | inhibition (Wolbachia [4]): Active; inhibition (Wolbachia [5]): Active; ΔTm (Wolbachia [6]): 5.5 °C; ΔTm (Wolbachia [7]): 3 °C; ΔTm (Wolbachia [8]): 2.8 °C; ΔTm (Wolbachia [9]): 1.9 °C; ΔTm (Wolbachia [10]): 0.7 °C; ΔTm (Wolbachia [11]): 1.2 °C; inhibition (Wolbachia [12]): > 30%; IC50 [2]: Not Active; IC50 ([3]; read-out: IC50): 8.1 µM |
| CC(C)(C)C(=O)N1CCc2nc3ccccc3c(C(=O)O)c2C1 |  | Not Active |  |  |
| O=C(O)c1ccc2c(c1)n(CC1CCNC1)c(=O)n2Cc1ccc(F)cc1 (stereo not given) | inactive |  | inactive |  |
| O=C(O)CCNC(=O)C(Cc1ccccc1)NC(=O)c1cccs1 (stereo not given) | inactive |  | inactive |  |
| O=C(O)c1cc(-c2ccc(Cl)cc2)cs1 |  |  |  | inhibition (Wolbachia [12]): > 30%; IC50 ([2]; read-out: IC50): 85.3 µM; IC50 ([3]; read-out: IC50): 521 µM |
| Cn1c(CCNC(=O)c2cccs2)nc2cc([N+](=O)[O-])ccc21 | inactive |  | inactive |  |
| CN1CCc2nc3ccccc3c(C(=O)O)c2C1 |  | Not Active |  |  |
| CCn1c(CSc2ccc(NC(C)=O)cc2)nc2cc(C(=O)O)ccc21 | inactive |  | inactive |  |
| O=C(O)c1c2c(nc3ccccc13)CCN(CC(O)COc1ccccc1)C2 (stereo not given) |  | Not Active |  |  |
| O=C(O)c1cc(-c2ccc(Br)cc2)cs1 |  |  |  | inhibition (Wolbachia [12]): > 30%; IC50 ([2]; read-out: IC50): 99.7 µM; IC50 ([3]; read-out: IC50): 299 µM |
| Cc1ccsc1C(=O)NCCc1ccc(C(=O)O)cc1 | inactive |  | inactive |  |
| CC(NC(=O)Cc1ccccc1C(=O)O)C1Nc2ccccc2N1 (stereo not given) | inactive |  | inactive |  |
| O=C(O)c1c2c(nc3ccccc13)CCN(CC(O)c1ccccc1)C2 (stereo not given) |  | Not Active |  |  |
| CCn1c(CSc2nnc(-c3cccs3)n2Cc2ccccc2)nc2cc(C(=O)O)ccc21 | inactive |  | inactive |  |
| COc1ccc(S(=O)(=O)N2CCc3nc4ccccc4c(C(=O)O)c3C2)cc1 |  | Not Active |  |  |
| O=C(N[C@@H](Cc1ccccc1)C(=O)O)c1cccs1 | inactive |  | inactive |  |
| O=C(c1cccc(C(F)(F)F)c1)N1CCc2nc3ncccc3cc2C1 |  | Not Active |  |  |
| O=C(O)c1ccc2c(c1)n(CCN1CCCC1)c(=O)n2Cc1ccc(F)cc1 | > 25% |  |  | IC50 ([2]; read-out: IC50): > 1000 µM; IC50 ([3]; read-out: IC50): 340 µM |
| O=C(O)c1c2c(nc3ccccc13)CCN(Cc1ccccc1)C2 |  | Not Active |  |  |
| O=C(O)c1c2c(nc3ccccc13)CCN(S(=O)(=O)c1ccccc1)C2 |  | Not Active |  |  |
| O=C(O)c1ccc2c(c1)nc(CCNC(=O)c1cccs1)n2Cc1cccc(C(F)(F)F)c1 |  |  |  | IC50 ([2]; read-out: IC50): 740 µM; IC50 ([3]; read-out: IC50): 11.1 µM |
| O=C(O)c1c2c(nc3ccccc13)CCNC2 |  | Not Active |  |  |
